# Laboratory results from PubChem BioAssay AID2305 (GlaxoSmithKline (GSK), 2010).
# Values joined by “and” are separate entries in the source; they are usually repeats but may differ in a detail not shown here. Identical values can stand only once.
# System: P. falciparum 3D7 growth, pLDH absorbance
# Assay: blood-stage malaria parasite growth potency – strain 3D7, dose response (AID 2305)
row,Structure (SMILES),IC50
1,CC[C@H]1CN2CC[C@H]1C[C@@H]2[C@H](O)c1ccnc2ccc(O)cc12,1040 nM
2,COc1ccc(NC(C)C(=O)Nc2ccc(Br)cc2)cc1S(=O)(=O)N1CCCCC1 (centres undefined),220 nM
3,CN(C)Cc1ccc(-c2ccc(NC(=O)c3ccc4c(=O)n(Cc5ccccc5)cnc4c3)cc2)cc1,650 nM
4,O=C(/C=C/c1ccc(Cl)c(Cl)c1)N1CCC(NCc2c[nH]c3ccccc23)CC1,1070 nM
5,CC(C)(C)CCN1CCC(NC(=O)c2ccc(-c3cccc(C(F)(F)F)c3)s2)CC1,760 nM
6,Cc1ccc(NC(=O)c2ccc(CN3CCCN(CCC(C)C)CC3)cc2)cc1F,610 nM
7,CC(C)(C)N1CCC(N(Cc2ccc(-c3ccc(C(F)(F)F)cc3)cc2)C(=O)Cn2c(CCc3cccc(F)c3F)cc(=O)c3cccnc32)CC1,710 nM
8,O=C(NCC1CCC(C(=O)NCc2cccc(C(F)(F)F)c2)CC1)c1ccc(O)c(-c2ccc(Cl)c(Cl)c2)c1 (centres undefined),710 nM
9,CC(C)=C(C(=O)OCc1ccccc1)N1C(=O)[C@@H](NC(c2ccccc2)(c2ccccc2)c2ccccc2)[C@H]1[S@@](=O)CC(=O)OC(C)(C)C,1020 nM
10,Cc1nn(CC(O)Cn2c3ccc(Br)cc3c3cc(Br)ccc32)c(C)c1Br (centres undefined),710 nM
11,CCCCn1c(Sc2ccc(C#N)c([N+](=O)[O-])c2)nnc1-c1cccc(Cl)c1,760 nM
12,O=C(/C=C/c1ccc(Cl)c(Cl)c1)NC1CCC(CN2CCC(c3nc4ccccc4s3)CC2)CC1 (centres undefined),1020 nM
13,CC(CCc1ccccc1)NCC(O)c1ccc2c3c(cccc13)S(=O)(=O)N2C (centres undefined),630 nM
14,COCCNCc1cccc(C#Cc2cc3ncnc(Nc4ccc(OCc5cccc(F)c5)c(Cl)c4)c3s2)n1,740 nM
15,O=C(/C=C/c1cccc2c1OCO2)Nc1ccnc2ccncc12,900 nM
16,Cc1cc(N[C@@H](CC(C)C)C(=O)Nc2ccccc2)nc(NCc2ccccc2C)n1,780 nM
17,Cc1cc2nc(-c3cc(Br)ccc3O)c(-c3cc(Br)ccc3O)nc2cc1C,850 nM
18,O=C(Nc1ccc(Cl)cc1)c1cc(Cl)ccc1NC(=O)C1(c2ccc(Cl)cc2)CCCC1,1100 nM
19,CC(C)c1ccc(CN2CCC(CNC(=O)c3cc(-c4cccc(F)c4)cs3)C2)cc1 (centres undefined),1660 nM
20,CCCC(CNCc1cccc(OCC)c1)CNc1cc(=O)c2ccccc2[nH]1 (centres undefined),850 nM
21,O=[N+]([O-])c1cnc(Nc2ccccc2O)nc1Nc1ccccc1O,900 nM
22,CC[C@H]1CN2CC[C@@H]1C[C@H]2[C@H](O)c1ccnc2ccc(OC)cc12,230 nM
23,O=C(Cn1c(SCc2cccc(F)c2F)cc(=O)c2ccccc21)N(CCn1ccnc1)Cc1ccc(-c2ccc(C(F)(F)F)cc2)cc1,770 nM
24,CCNc1cc(C(=O)N[C@@H](Cc2ccccc2)[C@H](O)CNC(C)(C)Cc2ccccc2)cc(N2CCCC2=O)c1,260 nM

row,Structure (SMILES),IC50
1,CCOc1ccc2c(NN=Cc3ccccc3F)cc(C)nc2c1,680 nM
2,COc1cc2ccccc2c(OC)c1CNCCCCCCNCc1c(OC)cc2ccccc2c1OC,990 nM
3,O=C(NCc1cccnc1)C(c1cc2ccccc2o1)N1CCN(C(c2ccccc2)c2ccccc2)CC1 (centres undefined),710 nM
4,CCOc1ccc(C(=O)Nc2cc(Br)c3c(c2)CNCC3)cc1Cl,1040 nM
5,Oc1ccc2ccccc2c1CNCCC1CCCCC1,170 nM
6,CO/C(=C\C=C\c1cc2cc(Cl)c(Cl)cc2[nH]1)C(=O)Nc1ccc(NCCN(C)C)nc1,770 nM
7,OC1(c2ccccc2)CCN(Cc2cccc(-c3c[nH]c4nc(NC5CCCC5)ncc34)c2)C1 (centres undefined),910 nM
8,O=C(Nc1cc(Oc2ccc(O)cc2)cc([N+](=O)[O-])c1)c1cc(-c2ccc(F)cc2)no1,960 nM
9,CN(C)CCCOc1c(C(C)(C)C)cc(-c2cc(C(C)(C)C)c(OCCCN(C)C)c(C(C)(C)C)c2)cc1C(C)(C)C,270 nM
10,c1ccc(COc2ccnc(NCCCOc3cccc(CN4CCCCC4)c3)c2)cc1,990 nM
11,O=C(Nc1ccc(-c2ccccc2)cc1)Nc1cccc(Cn2nc(Cl)c(N3CCNCC3)cc2=O)c1,370 nM
12,COc1ccc2c(c1)CCCC2C(C)NCC(O)c1cccc(C(F)(F)F)c1 (centres undefined),350 nM
13,CCN(CC)CCN(Cc1ccc(-c2ccc(C(F)(F)F)cc2)cc1)C(=O)Cn1c(CCc2cc(F)c(F)cc2F)nc(=O)c2ccccc21,720 nM
14,CS(=O)(=O)NCCCNCc1cccc(-c2ccc(-c3nc4ccc(C(F)(F)F)cc4[nH]3)s2)c1,880 nM
15,CCc1cn(C)c2c(N3CCCC3=O)cc(C(=O)N[C@@H](Cc3ccccc3)[C@H](O)CNCc3cccc(OC)c3)cc12,780 nM
16,CC(C)CCN(Cc1cncn1Cc1cccc(C(F)(F)F)c1)C(=O)c1ccccc1C#N,610 nM
17,COc1cccc(Nc2nc(C)cc(NC3CCCC3)n2)c1,1110 nM
18,C[C@@H](C(=O)N1CCOCC1)N1CC[C@H](NS(=O)(=O)c2ccc3ccnc(N)c3c2)C1=O,1500 nM
19,C=CCOC(=O)N1CCC(CNCc2ccc(-c3cccc(-c4nc5ccccc5[nH]4)c3)cc2)C1 (centres undefined),250 nM
20,CN(C)CCNCc1ccc(-c2cccc(-c3nc4ccccc4[nH]3)c2)cc1,720 nM
21,Cc1ccc2sc(N3CCN(C(=O)c4ccc([N+](=O)[O-])o4)CC3)nc2c1C,940 nM
22,CN(C)CCN(C)Cc1ccc(-c2ccc3c(Nc4ccc(Cl)cc4F)ccnc3c2)o1,360 nM
23,COc1ccc2nc3cc(Cl)ccc3c(Nc3ccc(Sc4ccc(Nc5c6ccc(Cl)cc6nc6ccc(OC)cc56)cc4)cc3)c2c1,200 nM
24,COc1cc(C=NNc2ccnc3cc(Cl)ccc23)ccc1O,130 nM

row,Structure (SMILES),IC50
1,CN1CCN(CCCNCc2cccc(-c3ccc(CNCCc4ccccc4)cc3)c2)CC1,780 nM
2,Cc1c(Cn2ncc(N3C[C@@H](C)N[C@@H](C)C3)c(Cl)c2=O)cccc1NC(=O)Nc1ccc(-c2ccccc2)cc1,600 nM
3,CCc1sc(CN(CCCNc2cc(=O)c3ccccc3[nH]2)Cc2sc(CC)c(Br)c2-c2ccsc2)c(-c2ccsc2)c1Br,90 nM
4,Cc1cc(CN2CCC(N3CC(c4ccccc4)(c4ccccc4)OC3=O)C2)ccc1O (centres undefined),780 nM
5,O=C(Nc1cccc(CN2CCCN(Cc3ccccc3)CC2)c1)c1ccc(-c2ccccc2)cc1,1300 nM
6,CN1CCN(CCCN(Cc2cccc(-c3cccc(CNC4CCCC4)c3)c2)C(=O)CCC2CCCC2)CC1,680 nM
7,CC(C)COc1ccc(Cl)cc1Cc1nc(-c2nc3ccc(CN(C)C)cc3[nH]2)co1,710 nM
8,COc1ccc2nccc(N3CCC(SCCNCc4ccc5c(n4)NC(=O)CS5)C3)c2n1 (centres undefined),250 nM
9,CC(C)C[C@@H](/C=N/N1CCOC1=O)NC(=O)[C@H](CC(C)C)NC(=O)c1ccc(OCCN2CCOCC2)cc1,220 nM
10,Cc1cccc2[nH]c(-c3ccc(-c4cccc(CN5CCC(CO)CC5)c4)s3)nc12,940 nM
11,O=C(Nc1ccccc1Br)N[C@@H]1CCN(c2ccnc3ccccc23)C1,940 nM
12,Oc1ccc(Nc2nc(NCc3ccco3)c3ccccc3n2)cc1,670 nM
13,COc1ccc(CNCc2ccc(-c3cccc(-c4nc5c(C)cccc5[nH]4)c3)cc2)cc1,130 nM
14,Cc1cc(N)cc2[nH]c(-c3ccc(N)cc3)nc12,890 nM
15,CNS(=O)(=O)c1ccc(NC(=O)c2cc(-c3cccnc3)nc3ccc(Br)cc23)cc1,910 nM
16,O=C(NCc1cccs1)[C@H](Cc1ccccc1)Nc1ccnc(NCCc2ccccc2)n1,1050 nM
17,Nc1c2c(nc3ccc(NC(=O)Cc4ccccc4)cc13)CCCC2,760 nM
18,O=C(NC1CCC(CN2CCC(c3c[nH]c4ccccc34)CC2)CC1)c1cc2cccc([N+](=O)[O-])c2[nH]1 (centres undefined),340 nM
19,O=C(/C=C/c1ccc(Cl)cc1)Nc1ccc2nc(CN3CCCC3)ccc2c1,80 nM
20,Fc1ccc(C=NNc2ccnc3ccc(C(F)(F)F)cc23)cc1,1100 nM
21,CCN(CC)CCN(Cc1ccc(-c2ccc(C(F)(F)F)cc2)cc1)C(=O)Cn1cc(Cc2cnn(C)c2)c(=O)n2nc(-c3ccccc3)cc12,730 nM
22,COc1ccc2ccc(F)c(CC(=O)N3CCOC(CNCc4cccc(-c5ccsc5)n4)C3)c2n1 (centres undefined),1170 nM
23,CC(=O)Nc1cccc(CNc2cc(C)nc(Nc3ccc(C)cc3)n2)c1,1140 nM
24,COc1cc2nc(N3CCC(CNC(=O)c4ccc(-c5ccc(C(=O)N(C)C)cc5OCCO)cc4)CC3)nc(N)c2cc1OC,640 nM

row,Structure (SMILES),IC50
1,c1nc2nc3c(c(Nc4ccc5c(c4)CCC5)n2n1)CCC3,920 nM
2,Cc1ccccc1C1CCN(C2CCC(NC(=O)c3ccc(-c4cc(C(F)(F)F)nn4C)s3)CC2)CC1 (centres undefined),850 nM
3,COc1ccc(Br)cc1C1[C@@H]2C(=O)N(c3ccc(Br)cc3)C(=O)[C@@H]2C2(C(=O)O)CC(OCc3ccccc3)CN12 (some centres undefined),190 nM
4,CC(=O)Nc1ccc(C(=O)Nc2cccc(-c3ccc(-c4nc5ccc(F)cc5[nH]4)cc3)c2)cn1,170 nM
5,CC(=O)Nc1ccc(Cl)c(Cl)c1,40 nM
6,CCCNCc1ccc(-c2ccc(CN(C(=O)c3nn(-c4ccccc4)nc3C)C3CCOCC3)cc2)nc1,140 nM
7,COc1cccc2sc(N3CCN(C(=O)c4ccc([N+](=O)[O-])o4)CC3)nc12,870 nM
8,CCOC(=O)NC1=NC(C)(C)N(OCc2ccc(Cl)c(Cl)c2)C(NC(=O)OCC)=N1,280 nM
9,O=C(NC1CCCCC1)N(Cc1ccc(-c2ccc(CNC3CCCC3)cc2)cc1)C1CCN(Cc2ccccc2)CC1,780 nM
10,O=C(NCc1cccc2ccccc12)C(c1cc2ccccc2o1)N1CCN(C(c2ccccc2)c2ccccc2)CC1 (centres undefined),670 nM
11,COc1ccc(C=CC(=O)NC2CCC(CN3CCC(c4c[nH]c5ccccc45)CC3)CC2)cc1 (centres undefined),780 nM and 810 nM
12,Cn1cc(-c2ccnc3[nH]c(-c4cccc(CNC5CCC(O)CC5)c4)cc23)cn1 (centres undefined),900 nM
13,CC[C@H]1CN2CC[C@H]1C[C@H]2[C@H](O)c1cc(-c2ccc(F)cc2C)nc2ccc(OC)cc12,160 nM
14,O=C(Nc1cccc(-c2cccc(-c3nc4ccc(C(F)(F)F)cc4[nH]3)c2)c1)c1csnn1,240 nM
15,CCCC(C)NC(=O)/C=C/c1ccccc1-c1cccc(OC)c1 (centres undefined),1250 nM
16,COc1ccc(-c2cn3c(C(=O)Nc4ccccc4Cl)c(-c4ccccc4)c4c3n2CCCC4)cc1,790 nM
17,Cc1cc(C(=O)Nc2ccc3c(c2)CCN3C2CCN(Cc3cccc4cc[nH]c34)C2)no1 (centres undefined),190 nM
18,COc1ccc2nccc(NN=Cc3cccc(C)n3)c2c1,760 nM
19,CCCCN(C)CC#Cc1ccc(-c2ccc3[nH]c(C)c(Br)c(=O)c3c2)cn1,650 nM
20,CC(C)C1C(O)=C(c2ccc3ccccc3c2)C(=O)N1CC1CCCCC1 (centres undefined),1130 nM
21,CC[C@H](C)CNC(=O)c1ccnc(-c2ccc(CNCCCc3ccccc3)cc2)c1,1230 nM
22,COc1cc(-c2nc(-c3ccccc3)c(-c3ccc(C(=O)c4ccc(F)cc4)cc3)[nH]2)cc(OC)c1O,660 nM
